We go through 36 compounds from patent publication US6221865A, “Inhibitors of protein isoprenyl transferases” (priority 1998, dated 2001).

The term inhibition denotes the change of the read-out against control, counted positive when it falls. Usually % inhibition stands for the drop in the measured response relative to a control, in per cent. High values mean strong suppression, low ones little suppression.

This assay concerns the target T1, protein farnesyltransferase (Rattus norvegicus, UniProt Q02293+Q04631).
T1 construct: The enzyme is purified according to Reiss, Y., et al., Cell, 62: 81-88 (1990), utilizing steps one through three; from tissue; host or cells: rat brain
The experiment in a line: Inhibition of farnesyltransferase (scintillation proximity assay, rat brain enzyme, biotin-K Ras B fragment substrate). It counts as biochemical. The method, boiled down: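 Enzyme from rat brain, partly purified (steps one to three), assayed by SPA kit using 0.1 mM final biotin-K Ras B peptide as prenyl acceptor rather than biotin-lamin. Activity given as percent inhibition.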
(In general: Scintillation proximity formats need no separation of bound from free tracer.)

Setting [1] is: read-out: % inhibition of farnesyltransferase at 1 × 10^-7 M, 1 × 10^-7 M (Table 3).
Setting [2] is: read-out: % inhibition of farnesyltransferase at 1 × 10^-8 M, 1 × 10^-8 M (Table 4).
Where [3] appears, read: read-out: % inhibition at 0.1 μM (*), Table 6, * = 0.1 μM (footnote), title prints 0.1 mM.
[4] abbreviates: read-out: % inhibition at 0.01 μM (**), Table 6, ** = 0.01 μM (footnote), title prints 0.01 mM.
Where [5] appears, read: Table 6, ** = 0.01 μM (footnote), title prints 0.01 mM.
The mark [6] stands for this setting: Table 6, * = 0.1 μM (footnote), title prints 0.1 mM.

Counter-ions that a name gives are not always drawn. Like-named read-outs stand apart in the source and are kept apart here.

T1 sequence (Q02293 whole entry, one chain of several): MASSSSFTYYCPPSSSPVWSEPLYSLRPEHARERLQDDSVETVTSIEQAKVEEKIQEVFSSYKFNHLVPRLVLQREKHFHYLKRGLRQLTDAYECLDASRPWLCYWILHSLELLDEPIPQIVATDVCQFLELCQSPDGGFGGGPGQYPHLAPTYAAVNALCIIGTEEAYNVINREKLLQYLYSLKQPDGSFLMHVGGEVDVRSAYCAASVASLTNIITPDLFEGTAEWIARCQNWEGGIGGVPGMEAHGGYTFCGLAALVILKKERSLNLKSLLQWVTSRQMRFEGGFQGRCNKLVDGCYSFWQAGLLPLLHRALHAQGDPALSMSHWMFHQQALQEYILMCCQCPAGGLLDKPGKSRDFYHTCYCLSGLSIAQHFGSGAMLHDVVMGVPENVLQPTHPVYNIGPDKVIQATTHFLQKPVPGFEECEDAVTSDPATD

As for `CSCC[C@H](NC(=O)c1ccc(CN2CCCC(OCC3CCCCC3)C2)cc1-c1ccccc1C)C(=O)O` (stereo partly drawn) [Example 990, N-[4-(3-cyclohexylmethoxypiperidin-1-ylmethyl)-2-(2-methylphenyl)benzoyl]methionine], under setting [1], the inhibition at 0.1 µM was found to be 84%.
For the compound `CSCC[C@H](NC(=O)c1ccc(CN2CCC[C@H]2COc2ccccc2)cc1-c1ccccc1C)C(=O)O` [Example 991, N-[4-(2-phenoxymethylpyrrolidin-1-ylmethyl)-2-(2-methylphenyl)benzoyl]methionine], the inhibition at 0.01 µM under setting [2] was found to be 69%.
Take `CSCC[C@H](NC(=O)c1ccc(CN2CCC[C@H]2COCC2CCCCC2)cc1-c1ccccc1C)C(=O)O` [Example 992, N-[4-(2-cyclohexylmethoxymethylpyrrolidin-1-ylmethyl)-2-(2-methylphenyl)benzoyl]methionine]: under setting [2], the inhibition at 0.01 µM was 93%.
As to `CSCC[C@H](NC(=O)c1ccc(CN2CCC[C@@H]2COCc2ccccc2)cc1-c1ccccc1C)C(=O)O` [Example 993, N-[4-(2-benzyloxymethylpyrrolidin-1-ylmethyl)-2-(2-methylphenyl)benzoyl]methionine], the inhibition at 0.1 µM under setting [1] was 90%.
On to `CSCC[C@H](NC(=O)c1ccc(CO[C@H](CSC(C)(C)C)Cc2ccccc2)cc1-c1ccccc1C)C(=O)O` [Example 994], for which the “% inhibition of farnesyltransferase at 1 × 10^-8 M” value (1 × 10^-8 M (Table 4)) is listed as 83%.
Same read-out and setting: to `CCSC[C@H](CCc1ccccc1)NCc1ccc(C(=O)N[C@@H](CCSC)C(=O)O)c(-c2ccccc2C)c1` [Example 995] belongs 92%; to `CCCCS(=O)(=O)N(Cc1ccc(C(=O)N[C@@H](CCSC)C(=O)O)c(-c2ccccc2C)c1)CC1CCCCC1` [Example 996], 80%.
Take `CSCC[C@H](NC(=O)c1ccc(/C=C/c2ccc(Oc3ccc(Cl)cc3)cc2)cc1-c1ccccc1C)C(=O)O` [Example 1016, N-[4-(2-(4-(4-chlorophenoxy)phenyl)ethen-1-yl)-2-(2-methylphenyl)benzoyl]methionine lithium salt]: the inhibition at 0.1 µM under setting [3] was found to be 92%.
For `CSCC[C@H](NC(=O)c1ccc(CN2CCN(Cc3ccccc3)CC2)cc1-c1ccccc1C)C(=O)O` [Example 1025], the inhibition at 0.01 µM under setting [4] was 91%.
`CSCC[C@H](NC(=O)c1ccc(CN(CCF)CCC2CCCCC2)cc1-c1ccccc1C)C(=O)O` [Example 1094]: the “% inhibition at 0.01 μM (**)” value under setting [5] was 96%.
Take `CSCC[C@H](NC(=O)c1ccc(Cc2nnnn2Cc2ccccc2)cc1-c1ccccc1C)C(=O)O` [Example 1099, N-[4-(1-benzyltetrazol-5-ylmethyl)-2-(2-methylphenyl)benzoyl]methionine]: the inhibition at 0.01 µM under setting [4] was 87%.
For `CSCC[C@H](NC(=O)c1ccc(Cc2nnnn2CC2CCCCC2)cc1-c1ccccc1C)C(=O)O` [Example 1100, N-[4-(1-cyclohexylmethyltetrazol-5-ylmethyl)-2-(2-methylphenyl)benzoyl]methionine], the inhibition at 0.01 µM under setting [4] is 82%.
Consider `CSCC[C@H](NC(=O)c1ccc(Cc2nnn(Cc3ccccc3)n2)cc1-c1ccccc1C)C(=O)O` [Example 1101, N-[4-(2-benzyltetrazol-5-ylmethyl)-2-(2-methylphenyl)benzoyl]methionine], for which the inhibition at 0.1 µM under setting [3] amounted to 86%.
`CSCC[C@H](NC(=O)c1ccc(Cc2nnn(CC3CCCCC3)n2)cc1-c1ccccc1C)C(=O)O` [Example 1102, N-[4-(2cyclohexylmethyltetrazol-5-ylmethyl)-2-(2-methylphenyl)benzoyl]methionine]: the inhibition at 0.01 µM under setting [4] is 84%.
As for `COCCN(CCC1CCCCC1)Cc1ccc(C(=O)N[C@@H](CCSC)C(=O)O)c(-c2ccccc2C)c1` [Example 1104], the “% inhibition at 0.01 μM (**)” value under setting [5] is recorded as 89%.
Take `CSCC[C@H](NC(=O)c1ccc(CN2CCOC[C@@H]2COCC2CCCCC2)cc1-c1ccccc1C)C(=O)O` [Example 1109, N-[4-(3(S)-cyclohexylmethoxymethylmorpholin-4-ylmethyl)-2-(2-methylphenyl)benzoyl]methionine]: the inhibition at 0.01 µM under setting [4] came to 74%.
As for `CSCC[C@H](NC(=O)c1ccc(CN2CCSC[C@H]2COCC2CCCCC2)cc1-c1ccccc1C)C(=O)O` [Example 1111, N-[4-(3(R)-cyclohexylmethoxymethylthiomorpholin-4-ylmethyl)-2-(2-methylphenyl)benzoyl]methionine], under setting [4], the inhibition at 0.01 µM came to 63%.
Still for that read-out and setting: as for `CSCC[C@H](NC(=O)c1ccc(CN2CC[C@H]2COCC2CCCCC2)cc1-c1ccccc1C)C(=O)O` [Example 1114, N-[4-(2(S)-cyclohexylmethoxymethylazetidin-1-ylmethyl)-2-(2-methylphenyl)benzoyl]methionine], the figure is 83%.
Turning to `CSCC[C@H](NC(=O)c1ccc(CN2CCC[C@H]2COc2cc(F)cc(F)c2)cc1-c1ccccc1C)C(=O)O` [Example 1115, N-[4-(2(S)-(3,5-difluorolphenoxy)methylpyffolidin-1-ylmethyl)-2-(2-methylphenyl)benzoyl]methionine], the inhibition at 0.1 µM under setting [3] is 94%.
For the compound `CSCC[C@H](NC(=O)c1ccc(CN2CCC[C@H]2COC2CCCCC2)cc1-c1ccccc1C)C(=O)O` [Example 1116, N-[4-(2(S)-cyclohexyloxymethylpyrrolidin-1-ylmethyl)-2-(2-methylphenyl)benzoyl]methionine], under setting [4], the inhibition at 0.01 µM turned out to be 91%.
For the compound `CSCC[C@H](NC(=O)c1ccc(CN2CC(F)(F)C[C@H]2COCC2CCCCC2)cc1-c1ccccc1C)C(=O)O` [Example 1117, N-[4-(2(S)-cyclohexylmethyloxymethyl-4,4-difluoropyrrolidin-1-ylmethyl)-2-(2-methylphenyl)benzoyl]methionine], the inhibition at 0.1 µM under setting [3] amounted to 92%.
On the same count and under the same terms, as for `COCC1CCC(Cc2ccccc2)N1Cc1ccc(C(=O)N[C@@H](CCSC)C(=O)O)c(-c2ccccc2C)c1` (stereo partly drawn) [Example 1118, N-[4-(2-methoxymethyl-5-benzylpyrrolidin-1-ylmethyl)-2-(2-methylphenyl)benzoyl]methionine], the figure is 86%.
With `CSCC[C@H](NC(=O)c1ccc(CN2CCC[C@@H]2COCC2CCCCC2)cc1-c1ccccc1C)C(=O)O` [Example 1119, N-[4-(2-cyclohexylmethoxymethylpyrrolidin-1-ylmethyl)-2-(2-methylphenyl)benzoyl]methionine], under setting [4], the inhibition at 0.01 µM was found to be 84%.
Consider `COC1CC(COCc2ccccc2)N(Cc2ccc(C(=O)N[C@@H](CCSC)C(=O)O)c(-c3ccccc3C)c2)C1` (stereo partly drawn) [Example 1121, N-[4-(2-benzyloxymethyl-4-methoxypyrrolidin-1-ylmethyl)-2-(2-methylphenyl)benzoyl]methionine], for which the inhibition at 0.1 µM under setting [3] was 72%.
On the same count and under the same terms, to `COC1CC(COCC2CCCCC2)N(Cc2ccc(C(=O)NC(CCSC)C(=O)O)c(-c3ccccc3C)c2)C1` [Example 1123, N-[4-(2(S)-cyclohexylmethoxymethyl-4(R-methoxypyrrolidin-1-ylmethyl)-2-(2-methylphenyl)benzoyl]methionine] belongs 90%; to `CSCC[C@H](NC(=O)c1ccc(CN2CCC[C@H]2CN2CCCCC2)cc1-c1ccccc1C)C(=O)O` [Example 1125, N-[4-(2-piperidin-1-ylmethylpyrrolidin-1-ylmethyl)-2-(2-methylphenyl)benzoyl]methionine], 92%; to `CSCC[C@H](NC(=O)c1ccc(CN2CCC[C@H]2CN(C)C2CCCCC2)cc1-c1ccccc1C)C(=O)O` [Example 1127], 90%.
With `CSCC[C@H](NC(=O)c1ccc(CN2OCCC2COC2CCCCC2)cc1-c1ccccc1C)C(=O)O` (stereo partly drawn) [Example 1130, N-[4-(3-cyclohexyloxymethylisoxazolidin-2-ylmethyl)-2-(2-methylphenyl)benzoyl]methionine], under setting [4], the inhibition at 0.01 µM is 88%.
For the compound `CCSCC(CC1CCCCC1)NCc1cc(-c2ccccc2C)c(C(=O)N[C@@H](CCSC)C(=O)O)cc1F` (stereo partly drawn) [Example 1134], the “% inhibition at 0.01 μM (**)” value under setting [5] is given as 95%.
In the case of `CCC(=O)N(CCCc1ccc(C(=O)N[C@@H](CCSC)C(=O)O)c(-c2ccccc2C)c1)C1CCCCC1` [Example 1145], the “% inhibition at 0.1 μM (*)” value under setting [6] is listed as 83%.
As for `CSCC[C@H](NC(=O)c1ccc(C/C(=C\c2cncs2)COc2cc(F)cc(F)c2)cc1-c1ccccc1C)C(=O)O` [Example 1163, N-{4-[E-2-(3,5-diflourophenoxy)methyl-3-(thiazol-5-yl)prop-2-enyl]-2-(2-methylphenyl)benzoyl}methionine Lithium Salt], the inhibition at 0.01 µM under setting [4] came to 73%.
Consider `CCCCN(Cc1cc(F)cc(F)c1)OCc1ccc(C(=O)N[C@@H](CCSC)C(=O)O)c(-c2ccccc2C)c1` [Example 1176, N-[4-N-Butyl-N-(3,5-difluorobenzyl)aminooxymethyl-2-(2-methylphenyl)benzoyl]methionine lithium salt], for which, under setting [3], the inhibition at 0.1 µM is 97%.
Turning to `CCCCN(CC1CCCCC1)OCc1ccc(C(=O)N[C@@H](CCSC)C(=O)O)c(-c2ccccc2C)c1` [Example 1186], the inhibition at 0.01 µM under setting [4] stood at 93%.
Take `CCCCN(CCN1CCCCC1)Cc1ccc(C(=O)N[C@@H](CCSC)C(=O)O)c(-c2ccccc2C)c1` [Example 1196]: the “% inhibition at 0.1 μM (*)” value under setting [6] is given as 87%.
With `CSCC[C@H](NC(=O)c1ccc(CP(C)(=O)CC2CCCCC2)cc1-c1ccccc1C)C(=O)O` (stereo partly drawn) [Example 1212, N-[4-((Cylohexylmethyl)methyl(oxophosphinyl)methyl)-2-(2-methylphenyl)benzoyl]methionine], the inhibition at 0.1 µM under setting [3] is 86%.
For the compound `CCCCP(=O)(Cc1ccc(C(=O)N[C@@H](CCSC)C(=O)O)c(-c2ccccc2C)c1)CC1CCCCC1` (stereo partly drawn) [Example 1213, N-[4-((Cylohexylmethyl)butyl(oxophosphinyl)methyl)-2-(2-methylphenyl)benzoyl]methionine], the inhibition at 0.01 µM under setting [4] is 79%.
